Among the test systems are MDA-MB-231 breast; HS 578T breast; A498 renal; NCI-H226 lung; HOP-92 NSCLC; HOP-62 NSCLC; MALME-3M melanoma; SW-620 colon; CAKI-1 renal; EKVX NSCLC.
Common to all, as to assay: NCI tumour cell line growth inhibition, 48 h

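1) Cells in 96-well plates. 2) Compound, 48 h, 5 concentrations. 3) Linear interpolation between surrounding doses. 4) Unreached endpoint = highest concentration. GI50 is the concentration that inhibits growth by half. TGI: total growth inhibition.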

As for `COc1ccc(-c2nn(-c3cccc(NC(=O)c4cccc(C(F)(F)F)c4)c3)cc2-c2ccncc2)cc1Cl`, the GI50 in the test on MDA-MB-231 breast was 1.77 µM; in the test on HS 578T breast, 1.54 µM; in the test with A498 renal, 1.03 µM; with NCI-H226 lung, 4.92 µM; in the test with HOP-92 NSCLC it was 1 µM; in the test with HOP-62 NSCLC, 3.07 µM. Besides, the GI50 with MALME-3M melanoma was 1.46 µM; with SW-620 colon, 4.07 µM; with CAKI-1 renal it was 2.57 µM. The TGI is 16.1 µM in the test with MDA-MB-231 breast; 8.74 µM in the test on HS 578T breast; 4.68 µM in the test on A498 renal; more than 100 µM in the test with NCI-H226 lung; 6.54 µM in the test with HOP-92 NSCLC; more than 100 µM in the test with HOP-62 NSCLC. Moreover, the TGI in the test on MALME-3M melanoma, in the test with SW-620 colon and in the test on CAKI-1 renal was more than 100 µM throughout.
Turning to `Nc1ccc(-c2nc3ccccc3o2)cc1S`, the GI50 was 6.14 µM with MDA-MB-231 breast; 16.4 µM in the test with HS 578T breast; 28.3 µM with A498 renal; 11.8 µM in the test on NCI-H226 lung; 18.8 µM in the test on HOP-92 NSCLC; 14.5 µM with HOP-62 NSCLC. For the same molecule, the values for the GI50 with EKVX NSCLC, in the test on SW-620 colon and with CAKI-1 renal were 11.6 µM, 20.7 µM and 20.5 µM, respectively. Also, the TGI in the test with MDA-MB-231 breast came out at 23.6 µM; with HS 578T breast it was 63.8 µM; with A498 renal, 70.6 µM; in the test with NCI-H226 lung it was 30.4 µM; with HOP-92 NSCLC, 42.3 µM; in the test on HOP-62 NSCLC it was 27.7 µM. Besides, the TGI in the test on EKVX NSCLC worked out at 55.3 µM; with SW-620 colon, 44.5 µM; in the test with CAKI-1 renal it was 36.4 µM.
Take `O=C(NCCNc1nccc(-c2c(-c3ccc(F)cc3)nc3sccn23)n1)c1ccccc1`: the GI50 in the test on MDA-MB-231 breast is 15.2 µM; in the test on HS 578T breast, 20.4 µM; in the test with A498 renal, 15.1 µM; in the test on NCI-H226 lung, 5.87 µM; with HOP-92 NSCLC, 14.8 µM; in the test with HOP-62 NSCLC, 16.9 µM. The GI50 with EKVX NSCLC is 7.51 µM; in the test with SW-620 colon, 7.44 µM; in the test on CAKI-1 renal, 2.48 µM. Moreover, the TGI with MDA-MB-231 breast was 67.2 µM; in the test on HS 578T breast it was more than 100 µM; in the test on A498 renal it was more than 100 µM; in the test on NCI-H226 lung, 25 µM; in the test with HOP-92 NSCLC, 68.2 µM; in the test with HOP-62 NSCLC it was 34.7 µM. Moreover, the TGI in the test on EKVX NSCLC came out at 56.1 µM; in the test on SW-620 colon, 85.6 µM; in the test on CAKI-1 renal it was 25.1 µM.
Take `NC1=CC(=O)c2nc3ccccc3c3ccnc1c23`: the GI50 with MDA-MB-231 breast is 16.9 µM; in the test on HS 578T breast, 0.766 µM; with A498 renal, 6.19 µM; in the test with NCI-H226 lung, 0.937 µM; in the test on HOP-62 NSCLC, 4.47 µM; with EKVX NSCLC it was 9.14 µM. The GI50 is 0.0856 µM in the test on MALME-3M melanoma, 3.14 µM with SW-620 colon and 4.98 µM in the test with CAKI-1 renal. In addition, the TGI in the test on MDA-MB-231 breast is more than 70.1 µM; in the test on HS 578T breast, 5.73 µM; with A498 renal it was 40.8 µM; in the test on NCI-H226 lung, more than 32.6 µM; in the test on HOP-62 NSCLC, more than 45.1 µM; with EKVX NSCLC, 29.4 µM. For the same molecule, the TGI with MALME-3M melanoma was 0.556 µM; in the test with SW-620 colon, more than 100 µM; with CAKI-1 renal, more than 95.6 µM.
With `CCN(CC)CCCCNc1ncc2cc(-c3cc(OC)cc(OC)c3)c(NC(=O)NC(C)(C)C)nc2n1`, the GI50 in the test with MDA-MB-231 breast was 5.89 µM; with HS 578T breast, 4.72 µM; in the test with A498 renal it was 0.0209 µM; with NCI-H226 lung it was 2.57 µM; in the test on HOP-92 NSCLC, 2.11 µM; in the test on HOP-62 NSCLC, 12.1 µM. Moreover, the results for the GI50 in the test on MALME-3M melanoma, with SW-620 colon and in the test on CAKI-1 renal were 1.96 µM, 8.15 µM and 3.99 µM, respectively. The TGI in the test with MDA-MB-231 breast was 17 µM; in the test on HS 578T breast, 28 µM; in the test on A498 renal, 0.097 µM; in the test on NCI-H226 lung, 24.8 µM; with HOP-92 NSCLC, 18.4 µM; in the test on HOP-62 NSCLC, 27.2 µM. Besides, the TGI in the test with MALME-3M melanoma is 4.17 µM; with SW-620 colon, 23 µM; with CAKI-1 renal it was 17 µM.
In the case of `Cc1sc(NC2=NC(=O)/C(=C\c3ccccc3)S2)nc1-c1nc(NC2=NC(=O)/C(=C\c3ccccc3)S2)sc1C`, the GI50 in the test with MDA-MB-231 breast was 10.2 µM; in the test on HS 578T breast, 3.13 µM; in the test with A498 renal it was 12.1 µM; with NCI-H226 lung, 12.4 µM; in the test with HOP-92 NSCLC, 12 µM; in the test with HOP-62 NSCLC it was 8.71 µM. In addition, the GI50 is 0.0627 µM in the test on EKVX NSCLC, 16.7 µM in the test on SW-620 colon and 12.1 µM with CAKI-1 renal. Moreover, the TGI is 27 µM with MDA-MB-231 breast; more than 50 µM with HS 578T breast; 30.7 µM with A498 renal; more than 32.8 µM with NCI-H226 lung; more than 36.1 µM with HOP-92 NSCLC; 22.9 µM in the test with HOP-62 NSCLC. The TGI with EKVX NSCLC is 1.94 µM; in the test on SW-620 colon, more than 50 µM; with CAKI-1 renal it was 33.2 µM.
Turning to `O=C(Nc1ccc(OCc2nnc(-c3ccccc3)o2)c(F)c1)Nc1ccc(Cl)c(C(F)(F)F)c1`, the GI50 in the test on MDA-MB-231 breast was 2.3 µM; in the test on HS 578T breast, 2 µM; with A498 renal it was 1.61 µM; in the test with NCI-H226 lung, 3.65 µM; with HOP-92 NSCLC, 1.78 µM; with HOP-62 NSCLC, 2.84 µM. In addition, the GI50 was 1.78 µM in the test with MALME-3M melanoma and 3.6 µM in the test with SW-620 colon. Further, the TGI amounted to 6.03 µM with MDA-MB-231 breast; 7.09 µM in the test with HS 578T breast; 4.25 µM in the test with A498 renal; 28.3 µM in the test with NCI-H226 lung; 5.17 µM in the test with HOP-92 NSCLC; 7.95 µM with HOP-62 NSCLC. The TGI stood at 4.98 µM in the test with MALME-3M melanoma and 35.4 µM in the test with SW-620 colon.
Consider `C=CC[C@@H]1/C=C(\C)C[C@H](C)C[C@H](OC)[C@H]2O[C@@](O)(C(=O)C(=O)N3CCCC[C@H]3C(=O)O[C@H](/C(C)=C/C3CC[C@@H](O)[C@H](OC)C3)[C@H](C)[C@@H](O)CC1=O)[C@H](C)C[C@@H]2OC` (some centres not stated), for which the GI50 is 15.8 µM in the test with MDA-MB-231 breast; 21.9 µM with HS 578T breast; 9.95 µM in the test on A498 renal; 15.3 µM with NCI-H226 lung; 16.2 µM in the test on HOP-62 NSCLC; 14.2 µM in the test with EKVX NSCLC. The GI50 with MALME-3M melanoma was 14.6 µM; in the test with SW-620 colon, 16.5 µM; with CAKI-1 renal, 12.9 µM. In addition, the TGI was found to be 31.4 µM with MDA-MB-231 breast; 65.9 µM with HS 578T breast; 24.3 µM with A498 renal; 30.1 µM in the test on NCI-H226 lung; 31.1 µM in the test with HOP-62 NSCLC; 34.5 µM in the test with EKVX NSCLC. Also, the TGI in the test on MALME-3M melanoma amounted to 32.1 µM; in the test with SW-620 colon it was 32.2 µM; in the test on CAKI-1 renal, 33.4 µM.

The record behind these values is PubChem BioAssay (NCI).
